Experimental data as given in paper PMC7238120, “Strong and Selective Inhibitory Effects of the Biflavonoid Selamariscina A against CYP2C8 and CYP2C9 Enzyme Activities in Human Liver Microsomes” (Pharmaceutics, 2020).

Legend:
[1] = biological target: T1, UGT1A9 (Homo sapiens, UniProt O60656); test: Inhibition of UGT1A9 (mycophenolic acid glucuronidation) in human liver microsomes; assay type: in vitro ADME; details: substrate mycophenolic acid; HLMs; average ± standard error
T1 construct: tissue XenoTech XTreme 200; host or cells: pooled human liver microsomes
T1 sequence (O60656 26-530): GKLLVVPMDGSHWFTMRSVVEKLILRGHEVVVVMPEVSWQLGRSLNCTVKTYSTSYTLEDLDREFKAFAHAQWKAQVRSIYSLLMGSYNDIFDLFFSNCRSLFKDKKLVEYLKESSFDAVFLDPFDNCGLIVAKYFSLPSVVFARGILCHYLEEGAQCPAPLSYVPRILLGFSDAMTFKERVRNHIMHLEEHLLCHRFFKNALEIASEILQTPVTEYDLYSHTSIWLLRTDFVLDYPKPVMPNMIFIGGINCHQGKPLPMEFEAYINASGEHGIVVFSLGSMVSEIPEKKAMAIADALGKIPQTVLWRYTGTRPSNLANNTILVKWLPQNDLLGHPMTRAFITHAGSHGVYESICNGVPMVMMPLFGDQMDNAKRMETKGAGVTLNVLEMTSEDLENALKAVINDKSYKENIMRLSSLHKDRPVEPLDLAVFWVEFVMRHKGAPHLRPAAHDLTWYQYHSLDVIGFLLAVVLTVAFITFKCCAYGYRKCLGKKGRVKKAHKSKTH
Procedure: The ability of selamariscina A to inhibit the metabolism of six UGT enzyme probe substrates was evaluated using previously developed methods with minor modifications. The microsomal incubation was performed by dividing the non-interactive substrate cocktail sets (set A included SN-38 for UGT1A1, CDCA for UGT1A3 and TFP for UGT1A4 while set B included N-SER for UGT1A6, MPA for UGT1A9 and NX for UGT2B7) (Table 2). In brief, HLMs (0.25 mg/mL) were activated by incubation in the presence of alamethicin (25 µg/mL) for 15 min on ice. After the addition of UGT probe substrates and inhibitor (0, 0.5, 2, 5, 20 and 50 μM), the incubation mixtures were pre-incubated at 37 °C for 5 min. […] After centrifugation at 18,000 g (5 min, 4 °C), aliquots of supernatants were analyzed by LC–MS/MS. […]
All metabolites and the IS were separated on a Kinetex XB-C18 column (100 × 2.10 mm, 2.6 μm, 100 Å; Phenomenex, Torrance, CA, USA) and analyzed using a Shimadzu LCMS 8060 triple-quadrupole mass spectrometer coupled with a Nexera X2 ultra high-performance liquid chromatography system (Shimadzu, Kyoto, Japan) equipped with an electrospray ionization interface. […] Quantitation was conducted in selected reaction monitoring (SRM) modes with the precursor-to-product ion transition for each metabolite (Table 1 and Table 2).
We analyzed the data with Shimadzu LabSolution LC–MS software. […]

[2] = system: CYP2C8 and CYP2C9 versus seven other P450s (CYP1A2, 2A6, 2B6, 2C19, 2D6, 2E1, 3A); test: Nine-P450 cocktail inhibition in human liver microsomes, statements on the other P450 isoforms; assay type: in vitro ADME; details: human, pooled human liver microsomes; amodiaquine and diclofenac activities versus seven other P450s
Procedure: (§1) The inhibitory potential of the five biflavonoids on the metabolism of nine P450 probe substrates was evaluated using previously developed methods with minor modifications. Biflavonoids were dissolved in methanol. The final concentration of methanol in the incubation mixture was 1.0% (v/v). We used these P450 probe substrates: phenacetin for CYP1A2, coumarin for CYP2A6, bupropion for CYP2B6, amodiaquine for CYP2C8, diclofenac for CYP2C9, omeprazole for CYP2C19, dextromethorphan for CYP2D6, chlorzoxazone for CYP2E1 and midazolam for CYP3A (Table 1). The incubation mixtures containing pooled human liver microsomes (HLMs, XTreme 200, XenoTech), P450 probe substrates, and inhibitor (0~20 µM) were pre-incubated at 37 °C for 5 min. The concentration range of the inhibitor varied (0, 0.002, 0.005, 0.02, 0.05, and 0.2 µM for CYP2C8; 0, 0.02, 0.05, 0.2, 0.5, and 2 µM for CYP2C9; 0, 0.5, 2, 5, 10, and 20 µM for other P450 isoforms). After pre-incubation, a reduced nicotinamide adenine dinucleotide phosphate (NADPH) generation system containing 1 unit/ml G6PDH, 1.3 mM β- nicotinamide adenine dinucleotide phosphate (β- NADP^+), 3.3 mM MgCl2, and 3.3 mM G6P was added to initiate a reaction, and further incubated for 10 min at 37 °C. The reaction was stopped by adding 50 μL of ice-cold acetonitrile containing 7 nM trimipramine (internal standard, IS). After centrifugation at 18,000 g (5 min, 4 °C), aliquots of supernatants were analyzed by LC–MS/MS (Shimadzu LCMS 8060 system, Shimadzu, Kyoto, Japan). All microsomal incubations were conducted in triplicate.
(§2) All metabolites and the IS were separated on a Kinetex XB-C18 column (100 × 2.10 mm, 2.6 μm, 100 Å; Phenomenex, Torrance, CA, USA) and analyzed using a Shimadzu LCMS 8060 triple-quadrupole mass spectrometer coupled with a Nexera X2 ultra high-performance liquid chromatography system (Shimadzu, Kyoto, Japan) equipped with an electrospray ionization interface. The mobile phase consisted of 0.1% formic acid in water (A) and 0.1% formic acid in acetonitrile (B). […] Electrospray ionization was performed in positive-ion mode at 4000 V or in negative-ion mode at −3500 V. The optimum operating conditions were determined as follows: vaporizer temperature, 300 °C; capillary temperature, 350 °C; collision gas (argon) pressure, 1.5 mTorr. Quantitation was conducted in selected reaction monitoring (SRM) modes with the precursor-to-product ion transition for each metabolite (Table 1 and Table 2).
(§3) We analyzed the data with Shimadzu LabSolution LC–MS software. The IC50 values were calculated by WinNonlin software (Pharsight, Mountain View, CA, USA). […]

[3] = system: other P450 isoforms (other than CYP2C8 and CYP2C9); test: as above; assay type: in vitro ADME; details: human, pooled human liver microsomes; inhibitor 0.5 μM; HLMs; isoforms other than CYP2C8 and CYP2C9; read-out: Inhibition of the other P450 isoform-specific activities
Procedure: as §1, §2, §3

[4] = system: other P450 isoforms; test: as above; assay type: in vitro ADME; details: inhibitor 5 μM; HLMs
Procedure: as §1, §2, §3

[5] = system: the other eight P450 enzymes (isoforms other than CYP2C8); test: as above; assay type: in vitro ADME; details: human, pooled human liver microsomes; isoforms other than CYP2C8; HLMs
Procedure: as §1, §2, §3

[6] = biological target: CYP2C9 (Homo sapiens, UniProt P11712); details: compared with diclofenac hydroxylase inhibition; S-mephenytoin 25 µM printed as substrate; read-out: IC50 reported by von Moltke et al. (2004); cited from earlier work
Chain of CYP2C9 (P11712 whole entry): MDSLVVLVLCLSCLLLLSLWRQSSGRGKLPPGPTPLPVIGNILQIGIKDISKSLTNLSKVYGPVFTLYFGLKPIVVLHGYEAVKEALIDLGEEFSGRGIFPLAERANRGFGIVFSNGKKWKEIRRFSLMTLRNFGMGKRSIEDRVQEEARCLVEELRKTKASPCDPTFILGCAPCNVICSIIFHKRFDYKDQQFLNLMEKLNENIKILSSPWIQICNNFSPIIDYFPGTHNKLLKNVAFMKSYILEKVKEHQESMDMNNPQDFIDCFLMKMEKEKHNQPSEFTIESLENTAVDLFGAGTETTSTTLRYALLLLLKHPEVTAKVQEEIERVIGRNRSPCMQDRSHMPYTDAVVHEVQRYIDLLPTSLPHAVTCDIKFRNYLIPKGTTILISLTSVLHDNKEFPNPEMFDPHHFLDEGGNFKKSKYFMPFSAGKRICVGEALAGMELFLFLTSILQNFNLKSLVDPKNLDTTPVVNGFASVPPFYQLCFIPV

O=C1CC(c2cc(-c3c(O)ccc4c(=O)cc(-c5ccc(O)cc5)oc34)c(O)cc2O)Oc2cc(O)cc(O)c21 (stereo not drawn) [selamariscina A]
IC50 [1]: 40.4 ± 11.1 µM
selectivity ratio at 10 min [2]: > 50
inhibition at 10 min, 0.5 µM [3]: ≤ 21.8%

CC(C)(O)c1ccccc1CC[C@@H](SCC1(CC(=O)O)CC1)c1cccc(/C=C/c2ccc3ccc(Cl)cc3n2)c1 [montelukast, reference compound]
Inhibition of the other six P450 isoforms [4]: negligible inhibition
IC50 at 10 min [5]: > 9.73 µM

O=c1cc(-c2ccc(O)c(-c3c(O)cc(O)c4c(=O)cc(-c5ccc(O)cc5)oc34)c2)oc2cc(O)cc(O)c12 [amentoflavone]
IC50 [6]: 0.035 µM
